Data reported in patent US20250235543A1, “MODIFIED PROTEINS AND PROTEIN DEGRADERS” (Cullgen (Shanghai), Inc., priority 2021, published 2025).
Like-named read-outs stand apart in the source and are kept apart here.

Assays:
cyclin D1 = assay: Cyclin D1 percentage degradation in Calu-1 cells (immunoblotting); type: cell-based; settings: 200 nM, 16 hours
Summary of the method: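 Cyclin D1 degradation was assessed by western blot. Clarified lysates, obtained by RIPA lysis with inhibitors and centrifugation at 13,000 rpm, were normalized by BCA protein assay and separated by SDS-PAGE. Bands were detected with Western ECL Substrate on a Bio-Rad ChemiDoc MP Imaging system and quantified in Image Lab software to derive percentage degradation.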

CDK4 = molecular target: T1, CDK4 (Homo sapiens, UniProt P11802); assay: CDK4 percentage degradation in Calu-1 cells (immunoblotting); type: cell-based; settings: read-out: CDK4 Degradation (200 nM)
T1 construct: endogenous in cells; host or cells: Calu-1
Summary of the method: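 CDK4 degradation was measured by immunoblotting. Cells were washed in cold PBS and lysed in RIPA buffer with inhibitors for 30 min at 4° C., then spun at 13,000 rpm to clear. After BCA protein determination, lysates were heated at 99° C. for 5 min in Laemmli buffer, resolved on SDS-PAGE, imaged on a ChemiDoc MP with ECL substrate, and band intensities quantified.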

T1 sequence (P11802 2-303 limits assumed): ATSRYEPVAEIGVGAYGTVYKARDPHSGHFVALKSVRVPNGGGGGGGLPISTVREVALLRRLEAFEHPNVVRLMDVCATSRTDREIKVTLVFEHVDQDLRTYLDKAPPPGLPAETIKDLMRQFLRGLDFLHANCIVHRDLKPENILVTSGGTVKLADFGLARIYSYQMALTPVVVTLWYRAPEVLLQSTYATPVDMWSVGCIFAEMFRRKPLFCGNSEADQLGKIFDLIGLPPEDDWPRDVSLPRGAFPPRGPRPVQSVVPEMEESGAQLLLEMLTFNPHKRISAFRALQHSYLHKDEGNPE
T1 sequence (P24385 whole entry partner): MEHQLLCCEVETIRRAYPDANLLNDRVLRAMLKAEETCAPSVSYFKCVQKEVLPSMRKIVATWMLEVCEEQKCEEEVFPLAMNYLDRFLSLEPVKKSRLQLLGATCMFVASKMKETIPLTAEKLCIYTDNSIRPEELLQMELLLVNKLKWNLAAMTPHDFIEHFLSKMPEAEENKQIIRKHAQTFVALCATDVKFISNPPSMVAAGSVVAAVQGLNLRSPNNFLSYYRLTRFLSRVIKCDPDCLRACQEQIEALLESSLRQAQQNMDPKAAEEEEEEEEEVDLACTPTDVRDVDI
T1 sequence (Q16531 2-1140 limits assumed, further chain): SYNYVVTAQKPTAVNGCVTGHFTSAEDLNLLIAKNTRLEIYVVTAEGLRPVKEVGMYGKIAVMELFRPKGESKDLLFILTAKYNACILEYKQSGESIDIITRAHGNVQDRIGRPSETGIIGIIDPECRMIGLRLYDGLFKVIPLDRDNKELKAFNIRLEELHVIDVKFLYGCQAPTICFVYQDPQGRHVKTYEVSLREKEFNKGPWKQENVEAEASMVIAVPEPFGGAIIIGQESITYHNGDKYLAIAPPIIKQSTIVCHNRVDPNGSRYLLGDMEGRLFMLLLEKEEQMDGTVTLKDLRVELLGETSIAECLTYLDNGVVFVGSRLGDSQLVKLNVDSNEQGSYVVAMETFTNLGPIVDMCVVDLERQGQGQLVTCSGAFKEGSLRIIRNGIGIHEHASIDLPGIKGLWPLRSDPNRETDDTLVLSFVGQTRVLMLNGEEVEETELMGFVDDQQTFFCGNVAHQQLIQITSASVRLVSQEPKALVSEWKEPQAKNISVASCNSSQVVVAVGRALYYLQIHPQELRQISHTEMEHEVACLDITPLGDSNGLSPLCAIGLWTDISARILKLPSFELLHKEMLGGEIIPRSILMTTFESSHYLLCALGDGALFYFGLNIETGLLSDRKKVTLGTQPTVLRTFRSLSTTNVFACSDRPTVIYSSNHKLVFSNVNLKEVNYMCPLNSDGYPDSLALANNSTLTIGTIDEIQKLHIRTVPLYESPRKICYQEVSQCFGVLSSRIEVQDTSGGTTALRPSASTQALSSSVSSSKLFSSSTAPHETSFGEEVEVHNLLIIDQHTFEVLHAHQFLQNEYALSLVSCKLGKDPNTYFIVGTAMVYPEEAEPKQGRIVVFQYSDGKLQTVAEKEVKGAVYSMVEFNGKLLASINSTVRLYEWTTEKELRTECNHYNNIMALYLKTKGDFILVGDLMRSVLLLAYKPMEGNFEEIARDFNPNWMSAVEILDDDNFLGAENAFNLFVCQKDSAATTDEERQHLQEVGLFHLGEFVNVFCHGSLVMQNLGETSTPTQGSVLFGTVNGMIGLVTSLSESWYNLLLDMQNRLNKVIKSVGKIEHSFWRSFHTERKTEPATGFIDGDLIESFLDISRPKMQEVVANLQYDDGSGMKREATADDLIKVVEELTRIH

Row | Structure (SMILES) | inhibition at 0.2 µM (CDK4; Calu-1 cells, 200 nM, 16 hours) [%] | CyclinD1 Degradation (200 nM) (cyclin D1) | inhibition at 0.2 µM (CDK4; Calu-1, 16 h) [%]
1 | CC(=O)c1c(C)c2cnc(Nc3ccc(N4CCN(CC(=O)NCCOCCOCCOCCOCCOCCOCCNc5ccc(C)c(C(=O)Nc6nc(C)c(C)s6)c5)CC4)cn3)nc2n(C2CCCC2)c1=O [CPD-132, 5-((1-(4-(6-((6-Acetyl-8-cyclopentyl-5-methyl-7-oxo-7,8-dihydropyrido[2,3-d]pyrimidin-2-yl)amino)pyridin-3-yl)piperazin-1-yl)-2-oxo-6,9,12,15,18,21-hexaoxa-3-azatricosan-23-yl)amino)-N-(4,5-dimethylthiazol-2-yl)-2-methylbenzamide] | > 80 | A (protein percentage degradation >=80%) | 
2 | CC(=O)c1c(C)c2cnc(Nc3ccc(N4CCN(C(=O)CCOCCOCCOCCNc5ccc(C)c(C(=O)Nc6nc(C)c(C)s6)c5)CC4)cn3)nc2n(C2CCCC2)c1=O [CPD-111, 5-((2-(2-(2-(3-(4-(6-((6-Acetyl-8-cyclopentyl-5-methyl-7-oxo-7,8-dihydropyrido[2,3-d]pyrimidin-2-yl)amino)pyridin-3-yl)piperazin-1-yl)-3-oxopropoxy)ethoxy)ethoxy)ethyl)amino)-N-(4,5-dimethylthiazol-2-yl)-2-methylbenzamide] |  | D (protein percentage degradation <30%) | < 30
3 | CC(=O)c1c(C)c2cnc(Nc3ccc(N4CCN(CC(=O)NCCCCCNc5ccccc5C(=O)Nc5nc(C)c(C)s5)CC4)cn3)nc2n(C2CCCC2)c1=O [CPD-363, 2-((5-(2-(4-(6-((6-Acetyl-8-cyclopentyl-5-methyl-7-oxo-7,8-dihydropyrido[2,3-d]pyrimidin-2-yl)amino)pyridin-3-yl)piperazin-1-yl)acetamido)pentyl)amino)-N-(4,5-dimethylthiazol-2-yl)benzamide] | 50 to 80 | A (protein percentage degradation >=80%) | 
4 | CNc1ccc(C(=O)Nc2ccc(N(C)C)nn2)c(NCCCCCNC(=O)CN2CCN(c3ccc(Nc4ncc5c(C)c(C(C)=O)c(=O)n(C6CCCC6)c5n4)nc3)CC2)c1 [CPD-377, 2-((5-(2-(4-(6-((6-Acetyl-8-cyclopentyl-5-methyl-7-oxo-7,8-dihydropyrido[2,3-d]pyrimidin-2-yl)amino)pyridin-3-yl)piperazin-1-yl)acetamido)pentyl)amino)-N-(6-(dimethylamino)pyridazin-3-yl)-4-(methylamino)benzamide] | 50 to 80 | A (protein percentage degradation >=80%) | 
5 | CC(=O)c1c(C)c2cnc(Nc3ccc(N4CCN(C(=O)CCCCCCCC(=O)Nc5ccccc5C(=O)Nc5nc(C)c(C)s5)CC4)cn3)nc2n(C2CCCC2)c1=O [CPD-160, 2-(9-(4-(6-((6-Acetyl-8-cyclopentyl-5-methyl-7-oxo-7,8-dihydropyrido[2,3-d]pyrimidin-2-yl)amino)pyridin-3-yl)piperazin-1-yl)-9-oxononanamido)-N-(4,5-dimethylthiazol-2-yl)benzamide] |  | C (protein percentage degradation <50%, and >=30%) | 50 to 80

Second part, led by results:

Row | inhibition at 0.2 µM (CDK4; Calu-1 cells, 200 nM, 16 hours) [%] | Structure (SMILES) | CyclinD1 Degradation (200 nM) (cyclin D1) | inhibition at 0.2 µM (CDK4; Calu-1, 16 h) [%]
6 | < 30 | CC(=O)c1c(C)c2cnc(Nc3ccc(N4CCN(CC(=O)NCCCCCNC(=O)COc5ccc(C(=O)Nc6ncc(C)s6)c(C)c5)CC4)cn3)nc2n(C2CCCC2)c1=O [CPD-036, 4-(2-((5-(2-(4-(6-((6-Acetyl-8-cyclopentyl-5-methyl-7-oxo-7,8-dihydropyrido[2,3-d]pyrimidin-2-yl)amino)pyridin-3-yl)piperazin-1-yl)acetamido)pentyl)amino)-2-oxoethoxy)-2-methyl-N-(5-methylthiazol-2-yl)benzamide] | D (protein percentage degradation <30%) | 
7 | 50 to 80 | CC(=O)c1c(C)c2cnc(Nc3ccc(N4CCN(CC(=O)NCCOCCOCCC(=O)Nc5ccc(C)cc5C(=O)Nc5nc(C)c(C)s5)CC4)cn3)nc2n(C2CCCC2)c1=O [CPD-141, 2-(3-(2-(2-(2-(4-(6-((6-Acetyl-8-cyclopentyl-5-methyl-7-oxo-7,8-dihydropyrido[2,3-d]pyrimidin-2-yl)amino)pyridin-3-yl)piperazin-1-yl)acetamido)ethoxy)ethoxy)propanamido)-N-(4,5-dimethylthiazol-2-yl)-5-methylbenzamide] | A (protein percentage degradation >=80%) | 
8 | > 80 | CC(=O)c1c(C)c2cnc(Nc3ccc(N4CCN(CC(=O)NCCOCCOCCC(=O)Nc5cc6c(cc5C(=O)Nc5ccc(C)cn5)CCN6)CC4)cn3)nc2n(C2CCCC2)c1=O [CPD-360, 6-(3-(2-(2-(2-(4-(6-((6-Acetyl-8-cyclopentyl-5-methyl-7-oxo-7,8-dihydropyrido[2,3-d]pyrimidin-2-yl)amino)pyridin-3-yl)piperazin-1-yl)acetamido)ethoxy)-ethoxy)propanamido)-N-(5-methylpyridin-2-yl)indoline-5-carboxamide] | A (protein percentage degradation >=80%) | 
9 | 50 to 80 | CNc1ccc(C(=O)Nc2nc(C)c(C)s2)c(NC(=O)CCOCCOCCNC(=O)CN2CCN(c3ccc(Nc4ncc5c(C)c(C(C)=O)c(=O)n(C6CCCC6)c5n4)nc3)CC2)c1 [CPD-164, 2-(3-(2-(2-(2-(4-(6-((6-Acetyl-8-cyclopentyl-5-methyl-7-oxo-7,8-dihydropyrido[2,3-d]pyrimidin-2-yl)amino)pyridin-3-yl)piperazin-1-yl)acetamido)ethoxy)ethoxy)propanamido)-N-(4,5-dimethylthiazol-2-yl)-4-(methylamino)benzamide] | A (protein percentage degradation >=80%) | 
10 | 50 to 80 | CC(=O)c1c(C)c2cnc(Nc3ccc(N4CCN(CC(=O)NCCOCCOCCC(=O)Nc5ccccc5C(=O)Nc5ccc(OC6CC6)nn5)CC4)cn3)nc2n(C2CCCC2)c1=O [CPD-350, 2-(3-(2-(2-(2-(4-(6-((6-Acetyl-8-cyclopentyl-5-methyl-7-oxo-7,8-dihydropyrido[2,3-d]pyrimidin-2-yl)amino)pyridin-3-yl)piperazin-1-yl)acetamido)ethoxy)ethoxy)propanamido)-N-(6-cyclopropoxypyridazin-3-yl)benzamide] | A (protein percentage degradation >=80%) | 
11 | < 30 | CC(=O)c1c(C)c2cnc(Nc3ccc(N4CCN(CC(=O)NCCOCCOCCC(=O)Nc5ccccc5C(=O)Nc5cc(C(F)(F)F)n(C)n5)CC4)cn3)nc2n(C2CCCC2)c1=O [CPD-069, 2-(3-(2-(2-(2-(4-(6-((6-Acetyl-8-cyclopentyl-5-methyl-7-oxo-7,8-dihydropyrido[2,3-d]pyrimidin-2-yl)amino)pyridin-3-yl)piperazin-1-yl)acetamido)ethoxy)ethoxy)propanamido)-N-(1-methyl-5-(trifluoromethyl)-1H-pyrazol-3-yl)benzamide] | D (protein percentage degradation <30%) | 
12 | 30 to 50 | CC(=O)c1c(C)c2cnc(Nc3ccc(N4CCN(CC(=O)NCCOCCOCCNc5cccc(C(=O)Nc6nc(C)c(C)s6)c5C)CC4)cn3)nc2n(C2CCCC2)c1=O [CPD-104, 3-((2-(2-(2-(2-(4-(6-((6-Acetyl-8-cyclopentyl-5-methyl-7-oxo-7,8-dihydropyrido[2,3-d]pyrimidin-2-yl)amino)pyridin-3-yl)piperazin-1-yl)acetamido)ethoxy)ethoxy)ethyl)amino)-N-(4,5-dimethylthiazol-2-yl)-2-methylbenzamide] | A (protein percentage degradation >=80%) | 
